{"source": "patent US20100261796A1", "about": "“Use of Novel Compounds for IBD Treatment” (Ferring B.V., priority 2005, published 2010)", "key": {"DSS-induced colitis": {"tested_on": "DSS-induced colitis", "test": "Dextran sulfate sodium (DSS) colitis induction model", "type": "in vivo, mice", "conditions": "preventive treatment, 10^−1 mg/kg/d, 5% DSS for seven days", "method": "Mice were fed 5% DSS (molecular weight 30-40 kDa) for seven days. DSS was dissolved in sterile distilled water and given ad libitum throughout the experiment. Stool consistency, occult blood or the presence of macroscopic rectal bleeding gross were determined daily and blindly by two experiment investigators, as described previously (Hartmann et al., J Pharmacol Exp Ther., 292(1):22-30 (2000)). […] Bleeding was scored 0 point for no blood in hemoccult, 2 points for positive hemoccult, and 4 points for gross bleeding from the rectum. These scores were added, resulting in a total clinical score ranging from 0 (healthy) to 8 (maximal activity of colitis). […] For cell infiltration of inflammatory cells, rare inflammatory cells in the lamina propria were counted as 0; increased numbers of inflammatory cells, including neutrophils in the lamina propria as 1; confluence of inflammatory cells, extending into the submucosa as 2; and a score of 3 was given for transmural extension of the inflammatory cell infiltrate. For epithelial damage, absence of mucosal damage was counted as 0, discrete focal lymphoepithelial lesions were counted as 1, mucosal erosion/ulceration was counted as 2, and a score of 3 was given for extensive mucosal damage and extension through deeper structures of the bowel wall. […]"}, "TNBS-induced colitis": {"tested_on": "TNBS-induced colitis", "test": "TNBS colitis induction model", "type": "in vivo, C57Bl/6 mice", "method": "Animals were housed ten per cage and had free access to standard mouse chow and tap water. For colitis induction, C57Bl/6 mice were anesthetized for 90-120 minutes and received an intra-rectal administration of TNBS (40 μL, 150 mg/kg; provided by Sigma-Aldrich, FR) dissolved in a 1:1 mixture of 0.9% NaCl with 100% ethanol. Control mice received a 1:1 mixture of 0.9% NaCl with 100% ethanol or a saline solution using the same technique. Animals were sacrificed 5 days after TNBS administration. The anti-inflammatory effects of compound 17 were tested by administering the compound once daily by subcutaneous injection, starting one day before colitis induction. Macroscopic, histology and biologic assessments of colitis were performed blindly by two investigators.\nThe colon of each mouse was examined under a dissecting microscope (magnification, ×5) to evaluate the macroscopic lesions according to the established so-called Wallace criteria. The Wallace score rates macroscopic lesions on a scale from 0 to 10 based on features reflecting inflammation, such as hyperemia, thickening of the bowel, and extent of ulceration (Wallace, J. L. et al. Gastroenterology 96(1):29-36 (1989)). A colon specimen located 2 cm above the anal canal was cut into three parts, one of which was fixed in 4% paraformaldehyde and embedded in paraffin. Sections stained with May-Grunwald-Giemsa were examined blindly by two investigators and scored according to the so-called Ameho criteria (Ameho, C. K. et al. Gut 41(4):487-493 (1997)). This grading on a scale from 0 to 6 takes into account the degree of inflammation infiltrate, the presence of erosion, ulceration, or necrosis, and the depth and surface extension of lesions.\nMice receiving TNBS injections had severe lesions five days after colitis induction, showing necrosis of the colon and leading to mortality in 70% of the mice. TNBS-induced colitis was characterized by hyperemia and extensive area of ulceration. These lesions were characterized by neutrophilic infiltration extending to the mucosa deep into the muscular layer. […]"}}, "data": [{"smiles": "NC(=O)CCCN(CCCC1CCCCC1)C(=O)Nc1ccccc1", "note": "[Compound 17, 4-[1-(3-cyclohexylpropyl)-3-phenylureido]butyramide]", "values": [{"measurement": "scores for clinical parameters (stool consistency + bleeding, 0 to 8)", "setting": "DSS-induced colitis; untreated 3.7±0.14, P=0.003", "result": "2.8±0.13"}, {"measurement": "histologic score (0 to 6)", "setting": "DSS-induced colitis; untreated 5.8±0.13, P=0.001", "result": "3.9±0.39"}, {"measurement": "Ameho score (histology, scale 0 to 6)", "setting": "TNBS-induced colitis; 10^−1 mg/kg/d subcutaneously once daily, starting one day before colitis induction, five days after TNBS administration, untreated TNBS mice 5.3±0.15", "result": "3.9±0.62"}, {"measurement": "Wallace score (macroscopic lesions, scale 0 to 10)", "setting": "TNBS-induced colitis; 10^−1 mg/kg/d subcutaneously once daily, starting one day before colitis induction, five days after TNBS administration, untreated TNBS mice 7.0±0.37", "result": "3.8±0.89"}, {"measurement": "mortality rates", "setting": "TNBS-induced colitis; 10^−1 mg/kg/d subcutaneously, TNBS-induced colitis, mortality in 70% of untreated TNBS mice", "result": "not associated with a significant improvement of mortality rates"}]}]}
